Measured values taken from patent EP0070049A1, “Derivative of acetylsalicylic acid having an analgetic, antipyretic, antiphlogistic and bronchosecretolytic activity” (UNIONE CHIMICA MEDICAMENTI- DIFME-S.p.A., priority 1981, dated 1983).

How the values were obtained:
[1] = test system: température corporelle, augmentée par l'injection intraveineuse de nucléinate de sodium dans le lapin; experiment: Antipyretic activity: rise in body temperature induced by intravenous sodium nucleinate; type: in vivo; conditions: for Augmentation temperature corporelle - °C ± d.s. après 1 heure: 1 heure après l'administration; for Augmentation temperature corporelle - °C ± d.s. après 2 heures: 2 heures après l'administration; for Augmentation temperature corporelle - °C ± d.s. après 3 heures: 3 heures après l'administration; for Augmentation temperature corporelle - °C ± d.s. après 4 heures: 4 heures après l'administration
Source text: L'activité antipyrétique de l'acétylsalicylate de 2(o-méthoxy-phénoxy)éthanol a été evaluée en comparaison avec celle de l'acide acétylsalicylique suivant la méthode, universellement employée, de la mesure de la variation de la température corporelle, augmentée par 1' injection intraveineuse de nucléinate de sodium dans le lapin. Les résultats de l'élaboration statistique des épreuves sont indiqués dans le suivant Tableau 2, dans lequel l'augmentation de la température corporelle est indiquée en °C ± la déviation standard, et a été mesurée 1, 2, 3 et 4 heures après l'administration; pour les autres valeurs est valable ce qui a été spécifié en relation avec le Tableau 1.

[2] = Acute oral toxicity (DL50, Lichtfield et al); design: species or system rats; conditions: rat, in vivo
Source text: La toxicité aiguë de l'acétylsalicylate de 2(o-méthoxy--phénoxy)éthanol a été évaluée en comparaison avec celle de l'acide acétylsalicylique et exprimée comme dose DL50 (la dose qui provoque la mort du 50% des animaux traités) en mg/kg de poids corporel des rats auxquels la substance a été administrée par voie orale. Les résultats de l'élaboration statistique suivant la méthode décrite par J.T.Lichtfield et al (J. Pharm. Exp. Ther., volume 96, page 99, 1949) donnent les suivantes valeurs de la dose toxique DLSO et, entre parenthèses, de son intervalle fiducial (valeurs minimale et maximale relevées): • acide acétylsalicylique 1400 (1207 1580) • acétylsalicylate de • 2(o-méthoxy-phénoxy)éthanol 2934 (2696 3098)

[3] = Solubility (characteristics of the substance); type: physicochemical
[4] = test system: convulsions abdominales (writhings) induites dans le souris par une injection intrapéritonéale d'acide acétique; experiment: Acetic acid writhing test (analgesic activity, Koster and Anderson); type: in vivo; conditions: souris, 60 minutes après l'administration; for Frequence writhings: ± déviation standard
Source text: L'activité analgésique de l'acétylsalicylate de 2(o-méthoxy-phénoxy)éthanol a été évaluée en comparaison avec celle de l'acide acétylsalicylique sur la base de la fréquence des convulsions abdominales (writhings) induites dans le souris par une injection intrapéritonéale d'acide acétique, suivant la technique décrite par Koster et Anderson (Fed. Proc., volume 18, page 412, 1959). Les résultats de l'élaboration statistique des épreuves sont indiqués dans le suivant Tableau 3, dans lequel la fréquence des convulsions est indiquée comme nombre de convulsions par minute ± la déviation standard, et a été mesurée 60 minutes après l'administration; pour les autres valeurs est valable ce qui a été spécifié en relation avec le Tableau 1.

rats = conditions: rat, in vivo, 915 mg/kg
Source text: La toxicité subaiguë de l'acétylsalicylate de 2(o-méthoxy-phénoxy)éthanol a été évaluée en comparaison avec celle de l'acide acétylsalicylique en administrant à des rats, par voie orale, des doses journalières de substance pour 10 jours, et en relevant le nombre des animaux morts, la diminution moyenne de poids des animaux traités et l'incidence des lésions gastriques relevées, distinguées en simple hyperémie, hyperémie accompagnée par hémorragie et hémorragie accompagnée par ulcérations. Les résultats des épreuves sont indiqués dans le Tableau 5, dans lequel la dose de substance administrée est exprimée en mg de substance par kg de poids corporel et par jour, et la diminution moyenne de poids corporel à la fin du traitement est exprimée en grammes.

[5] = test system: arbre bronchial de rats Wistar; experiment: Bronchosecretolytic activity: pulmonary excretion of fluorescein (Mawatari); type: in vivo; conditions: rats Wistar, 200 mg/Kg
Source text: L'activité bronchosécrétolytique de l'acétylsalicylate de 2(o-méthoxy-phénoxy)éthanol a été évaluée en comparaison avec celle du gaïacoléthanol, sur la base de la mesure des variations de la quantité d'indicateur (fluorescéine) trouvée dans l'arbre bronchial de rats Wistar, recueillie au moyen d'un système de lavage standardisé, après injection parentérale de l'indicateur, et mesurée au moyen d'un spectrofluorométre, suivant la méthode décrite par H.Mawatari ("Expérimental studies on the expectorant action of several drugs", Kagoshima Daigakeu Igakeu Zasshi, volume 27, page 561, 1976). Les résultats de l'élaboration statistique des épreuves sont recueillis dans le suivant tableau 4,dans lequel l' excrétion pulmonaire de fluorescéine est exprimée en microgrammes ± la déviation standard, soit dans la quantité totale trouvée, soit dans la quantité pour-cent rapportée à 100 g de poids corporel des rats. Entre parenthèses sont indiquées les valeurs de l'augmentation pour-cent par rapport aux contrôles. Pour les autres valeurs est valable ce qui été précisé en relation au Tableau 1.

In the case of `COc1ccccc1OCCOC(=O)c1ccccc1OC(C)=O` [acétylsalicylate de 2(o-méthoxy-phénoxy)éthanol], the “Augmentation temperature corporelle - °C ± d.s. après 1 heure” value ([1]; 100 mg/Kg) is reported as 1,15 ± 0,19 °C, the “inhibition en pour-cent calculée par rapport aux contrôles, après 2 heures” value ([1]; 100 mg/Kg) is reported as 22 pour-cent and the “Augmentation temperature corporelle - °C ± d.s. après 2 heures” value ([1]; 100 mg/Kg) is reported as 1,13 ± 0,2 °C. The “inhibition en pour-cent calculée par rapport aux contrôles, après 3 heures” value ([1]; 100 mg/Kg) was 43 pour-cent, the “Augmentation temperature corporelle - °C ± d.s. après 3 heures” value ([1]; 100 mg/Kg) was 0,94 ± 0,11 °C and the “inhibition en pour-cent calculée par rapport aux contrôles, après 4 heures” value ([1]; 100 mg/Kg) was 56 pour-cent. For the same compound, the “Augmentation temperature corporelle - °C ± d.s. après 4 heures” value ([1]; 100 mg/Kg) was 0,33 ± 0,07 °C, the “Augmentation temperature corporelle - °C ± d.s. après 1 heure” value ([1]; 200 mg/Kg) was 1,1 ± 0,2 °C and the “inhibition en pour-cent calculée par rapport aux contrôles, après 2 heures” value ([1]; 200 mg/Kg) was 24 pour-cent. For the same compound, the “Augmentation temperature corporelle - °C ± d.s. après 2 heures” value ([1]; 200 mg/Kg) was 1,1 ± 0,17 °C, the “inhibition en pour-cent calculée par rapport aux contrôles, après 3 heures” value ([1]; 200 mg/Kg) was 47 pour-cent and the “Augmentation temperature corporelle - °C ± d.s. après 3 heures” value ([1]; 200 mg/Kg) was 0,87 ± 0,15 °C. The “inhibition en pour-cent calculée par rapport aux contrôles, après 4 heures” value ([1]; 200 mg/Kg) was 62 pour-cent, the “Augmentation temperature corporelle - °C ± d.s. après 4 heures” value ([1]; 200 mg/Kg) was 0,28 ± 0,05 °C and the LD50 [2] was 2930 mg/kg. For the same compound, the “solubilité en solvants organiques” value ([3]; benzène, chloroforme, diméthylcétone, éthanol, éther éthylique, isopropanol et autres solvants organiques) was “soluble”, the “solubilité dans l'eau” value ([3]; eau) was “practiquement insoluble” and the inhibition at 100 mg/kg ([4]; 1 h, 100 mg/Kg, read-out: % inhibition) was 33%. For the same compound, the inhibition at 200 mg/kg ([4]; 1 h, 200 mg/Kg, read-out: % inhibition) was 49%, the Frequence writhings ([4]; 100 mg/Kg) was “**19,5 ± 5,4 convulsions par minute” and the Frequence writhings ([4]; 200 mg/Kg) was “**14,88 ± 6,8 convulsions par minute”. For the same compound, the “Lésions gastriques Hyperémie” value (rats) was 4, the “Lésions gastriques Hyperémie + hémorragie” value (rats) was 2 and the “Lésions gastriques Hémorragie + ulcérations” value (rats) was “=”. The Nombre animaux morts (rats) was 3, the Δ poids moyenne (rats) was -10 grammes and the “augmentation pour-cent par rapport aux contrôles (excrétion pulmonaire de fluorescéine, quantité totale)” value [5] was “+90,8 pour-cent”. For the same compound, the “Excrétion pulmonaire de fluorescéine Quantité pour-cent µg/100 g” value ([5]; rapportée à 100 g de poids corporel, ± déviation standard) was 0,230 ± 0,042 µg/100 g and the “Excrétion pulmonaire de fluorescéine Quantité totale µg” value ([5]; ± déviation standard) was 0,481 ± 0,068 µg.
